Eleven compounds from ChEMBL document CHEMBL4270527, “Discovery of phenylsulfonylfuroxan derivatives as gamma globin inducers by histone acetylation” (Eur J Med Chem, 2018) can be followed below.

Molecules are shown by their SMILES. Active and inactive are the calls of the source. The calls are words filed in the database; no cut-off is given here.

Series [1] has as its system Platelet. Nature of the series: Antiplatelet activity in Wistar rat platelet rich plasma assessed as inhibition of ADP-induced platelet aggregation at 100 uM pretreated for 1 min followed by ADP addition by turbidimetric method relative to control. In kind it is functional.
Series [2] deals with Mus musculus. Nature of the series: Antinociceptive activity in Swiss albino mouse assessed as decrease in number of acetic acid-induced abdominal constriction at 100 umol/kg, po pretreated for 1 hr followed by acetic-acid challenge for 10 mins measured for 20 mins relative to control. Type of series: functional. Also noted: scale not given: the % may be the effect or the level left.

The test system of series [3] is CHO-K1. Nature of the series: Mutagenicity in CHOK1 cells assessed as nuclear division index at 25 uM after 24 hrs by Giemsa staining based microscopic analysis (reference value: 1.701 +/- 0.002). The conditions noted are these: chinese hamster, cho-k1, 24 h. In kind it is toxicity, cell-based, Cricetulus griseus.
Series [4] relates to CHO-K1. Put plainly: Genotoxicity in CHOK1 cells assessed as increase in commet tail at 100 uM after 24 hrs by commet assay. Type of series: toxicity, cell-based, Cricetulus griseus. The conditions noted are these: chinese hamster, cho-k1, 24 h.
Series [5] concerns CHO-K1. Put plainly: Mutagenicity in CHOK1 cells assessed as nuclear division index at 50 uM after 24 hrs by Giemsa staining based microscopic analysis (reference value: 1.701 +/- 0.002). In kind it is toxicity, cell-based, Cricetulus griseus. The conditions noted are these: chinese hamster, cho-k1, 24 h.
Series [6] relates to CHO-K1. Nature of the series: Mutagenicity in CHOK1 cells assessed as frequency of micronucleus binucleated cells at 25 to 100 uM after 24 hrs by Giemsa staining based microscopic analysis. In kind it is toxicity, cell-based, Cricetulus griseus. The conditions noted are these: chinese hamster, cho-k1, 24 h.
In series [7] the test system is CHO-K1. Nature of the series: Mutagenicity in CHOK1 cells assessed as nuclear division index at 100 uM after 24 hrs by Giemsa staining based microscopic analysis (reference value: 1.701 +/- 0.002). Type of series: toxicity, cell-based, Cricetulus griseus. The conditions noted are these: chinese hamster, cho-k1, 24 h.
For series [8], the system named is CHO-K1. Nature of the series: Genotoxicity in CHOK1 cells assessed as increase in tail moment at 25 to 100 uM after 24 hrs by commet assay. In kind it is toxicity, cell-based, Cricetulus griseus. The conditions noted are these: chinese hamster, cho-k1, 24 h.
The nature of series [9]: Stability of the compound in pH 7.4 phosphate buffered saline assessed as compound hydrolysis after 4 hrs by UV-HPLC analysis. In kind it is physicochemical. The conditions noted are these: read-out: Drug degradation.
The test system of series [10] is Macrophage. Nature of the series: Cytotoxicity against LPS-induced Swiss albino mouse macrophages assessed as cell viability at 6.2 to 50 uM after 24 hrs by MTT assay relative to control. In kind it is functional.
The subject of series [11] is Macrophage. Put plainly: Inhibition of LPS-induced TNFalpha production in Swiss albino mouse macrophages at 6.2 uM after 24 hrs by ELISA relative to control. In kind it is functional.
The subject of series [12] is Macrophage. Nature of the series: Inhibition of LPS-induced TNFalpha production in Swiss albino mouse macrophages at 12.5 uM after 24 hrs by ELISA relative to control. Type of series: functional.
Series [13] relates to Macrophage. Put plainly: Inhibition of LPS-induced TNFalpha production in Swiss albino mouse macrophages at 25 uM after 24 hrs by ELISA relative to control. Type of series: functional.
Series [14] addresses MAP kinase p38 (Homo sapiens) (UniProt O15264+Q15759+Q16539+P53778). Nature of the series: Activation of p38 MAPK phosphorylation in human K562 cells at 6.7 to 100 uM by Western blot analysis. Type of series: cell-based.
For series [15], the system named is K562. Put plainly: Activation of histone H3/H4 acetylation in human K562 cells assessed as increase in […] expression at 25 to 100 uM after 96 hrs by Western blot analysis. Type of series: cell-based.
The target of series [16] is Histone H4 (Homo sapiens) (UniProt P62805). Nature of the series: Activation of histone H4 acetylation in human K562 cells at 6.7 to 100 uM after 24 hrs by Western blot analysis. Type of series: cell-based.
For series [17], the system named is K562. Put plainly: Activation of histone H3 acetylation in human K562 cells at 6.7 to 100 uM after 24 hrs by Western blot analysis. In kind it is cell-based.
Series [18] has as its system CHO-K1. Nature of the series: Cytotoxicity against CHOK1 cells assessed as reduction in cell viability at 100 uM after 24 hrs by XTT assay relative to control. In kind it is cell-based, Cricetulus griseus. The conditions noted are these: chinese hamster, cho-k1, 24 h.
In series [19] the test system is CHO-K1. Nature of the series: Cytotoxicity against CHOK1 cells assessed as reduction in cell viability at 50 uM after 24 hrs by XTT assay relative to control. In kind it is cell-based, Cricetulus griseus. The conditions noted are these: chinese hamster, cho-k1, 24 h.
The subject of series [20] is CHO-K1. Put plainly: Cytotoxicity against CHOK1 cells assessed as reduction in cell viability at 25 uM after 24 hrs by XTT assay relative to control. In kind it is cell-based, Cricetulus griseus. The conditions noted are these: chinese hamster, cho-k1, 24 h.
Series [21] has as its system CHO-K1. Put plainly: Mutagenicity in CHOK1 cells assessed as frequency of micronucleus at 25 to 100 uM after 24 hrs by Giemsa staining based microscopic analysis. Type of series: toxicity, cell-based, Cricetulus griseus. The conditions noted are these: chinese hamster, cho-k1, 24 h.
Series [22] concerns CHO-K1. Put plainly: Mutagenicity in CHOK1 cells assessed as nuclear division index at 0.3 ug/ml after 24 hrs by Giemsa staining based microscopic analysis (reference value: 1.701 +/- 0.002). Type of series: toxicity, cell-based, Cricetulus griseus. The conditions noted are these: chinese hamster, cho-k1, 24 h.
The subject of series [23] is Macrophage. Put plainly: Inhibition of LPS-induced TNFalpha production in Swiss albino mouse macrophages at 50 uM after 24 hrs by ELISA relative to control. Type of series: functional.
Series [24] has as its system K562. Put plainly: Activation of histone H3/H4 acetylation in human K562 cells assessed as increase in […] expression at 6.7 to 12.5 uM after 48 hrs by Western blot analysis. In kind it is cell-based.
In series [25] the test system is K562. Nature of the series: Activation of histone H3/H4 acetylation in human K562 cells assessed as induction of […] production at 100 uM after 96 hrs by Western blot analysis. In kind it is cell-based.
The test system of series [26] is K562. Nature of the series: Activation of histone H3 acetylation in human K562 cells at 100 uM after 24 hrs by Western blot analysis. In kind it is cell-based.

Turning to `CC(=O)Oc1ccccc1C(=O)O` [ASPIRIN], in series [1], the inhibition at 100 µM was 5%.

For `O=C(N/N=C/c1c(-c2ccccc2)no[n+]1[O-])c1ccccc1N1C(=O)c2ccccc2C1=O`, the inhibition at 100 µM in [1] was determined as 17.2%. Besides, the Activity in series [2] was determined as 36.2%.

Regarding `O=C(N/N=C/c1ccc(Oc2no[n+]([O-])c2S(=O)(=O)c2ccccc2)cc1)c1ccc(N2C(=O)c3ccccc3C2=O)cc1`, the Activity_index in series [3] was determined as 1.691; in series [5], 1.69; in [7], 1.697. Further, the Activity result in [4] is “Non-Toxic”; in series [6], “Non-Toxic”; in series [8] it was “Non-Toxic”; in [2], 50.1%; in [10] it was more than 75%; in series [18], “<= 30%”. The Activity in series [19] is 14%; in series [20], 4%; in series [21] it was “Non-Toxic”. Besides, the degraded at 4 h in series [9] stood at 30%. Also, the inhibition at 100 µM in series [1] amounted to 76.1%. Further, the inhibition at 6.2 µM in series [11] was found to be 41%. Besides, in series [12], the inhibition at 12.5 µM worked out at 54.2%. In series [13], this compound displayed an inhibition at 25 µM of 76.5%. Moreover, the outcome in series [14] and in [16] was inactive. Also, the outcome in series [15] and in [17] was Active.

With `Cc1c(N(C)CS(=O)(=O)[O-])c(=O)n(-c2ccccc2)n1C.[Na+]` [DIPYRONE SODIUM], the Activity in series [2] is on record as 35%.

Consider `COc1cccc2c1C(=O)c1c(O)c3c(c(O)c1C2=O)C[C@@](O)(C(=O)CO)C[C@@H]3O[C@H]1C[C@H](N)[C@H](O)[C@H](C)O1` [DOXORUBICIN], for which, in series [22], the Activity_index was found to be 1.683.

For the compound `O=C(N/N=C/c1ccc2no[n+]([O-])c2c1)c1ccc(N2C(=O)c3ccccc3C2=O)cc1`, the inhibition at 100 µM in series [1] stood at 2.8%. Moreover, the Activity in series [2] is 48.3%; in series [10], more than 75%. Besides, in series [12], the inhibition at 12.5 µM was found to be 99.9%. Besides, the inhibition at 25 µM in series [13] stood at 99.5%. The same compound came in with an inhibition at 50 µM in series [23] of 54.5%.

On to `O=C(N/N=C/c1c(-c2ccccc2)no[n+]1[O-])c1ccc(N2C(=O)c3ccccc3C2=O)cc1`, for which, in series [1], the inhibition at 100 µM was 26.5%. In addition, the Activity in [2] was 44.8%; in [10], more than 75%.

`O=C(N/N=C/c1ccc2no[n+]([O-])c2c1)c1cccc(N2C(=O)c3ccccc3C2=O)c1`: the inhibition at 100 µM in series [1] is 1.2%. Further, the Activity is reported as 40.5% in [2] and more than 75% in series [10].

As for `O=C1CCC(N2C(=O)c3ccccc3C2=O)C(=O)N1` (configuration not stated) [THALIDOMIDE], in [23], the inhibition at 50 µM came out at 31.7%.

With `O=C(N/N=C/c1cccc(Oc2no[n+]([O-])c2S(=O)(=O)c2ccccc2)c1)c1ccc(N2C(=O)c3ccccc3C2=O)cc1`, in series [1], the inhibition at 100 µM stood at 84%. Besides, the results for the Activity in series [2] and in series [10] were 42% and more than 75%, respectively. Besides, at 6.2 µM the inhibition in series [11] was 61%. The same compound gave an inhibition at 12.5 µM in [12] of 64.9%. Testing at 25 µM in [13] gave an inhibition of 73.6%. Also, the result in [14] was inactive. In addition, the outcome in series [24], in series [25], in series [26] and in series [16] was Active.

On to `O=C(N/N=C/c1ccc2no[n+]([O-])c2c1)c1ccccc1N1C(=O)c2ccccc2C1=O`, for which, in [1], the inhibition at 100 µM was 0%. For the same compound, the Activity in [2] was determined as 30.5%.
